Key:
[1] = human, 1 %, pH 2.19
Description: The enamel softening method is used to determine the potential of oral care compositions to damage (or not to damage) dental enamel with repeated exposure.
A core of sound human enamel with a diameter of 3-4 mm was extracted from whole human teeth. The cores were mounted in dental acrylic and the surfaces were ground using 600 grit paper. Increasingly fine lapping papers were then used to polish the surface to a 1μ polish. Samples were sonicated in deionized water for 30 min. Enamel specimens were then rinsed with deionized water and wiped to remove any residual polish. Each enamel specimen was inspected and samples with large cracks or uneven calcification were discarded. […]
The artificial saliva solution of TABLE 6 was prepared on the day before the experiment. Also on the day before the experiment, the Vickers hardness of each enamel specimen was measured using a hardness indenter at three separate locations spread across the enamel surface. A 50 g load was applied for 10 seconds, and the diagonal lengths of the resulting indents were measured using a 20× magnification objective. […]
On the day following the cycling experiment, the post-cycling hardness was obtained for each specimen using a similar procedure to that described for the pre-cycling hardness measurements. […] The average change in specimen hardness with respect to treatment and its standard deviation were then determined. […]

[2] = Slurry pH of enamel softening treatments; format: physicochemical; details: treatment as used in enamel softening, Study 1
Description: The pH of the oral care compositions as described herein can be from about 4 to about 7, from about 4 to about 6, from about 4.5 to about 6.5, or from about 4.5 to about 5.5. The pH of a mouthrinse solution can be determined as the pH of the neat solution. The pH of a dentifrice composition can be determined as a slurry pH, which is the pH of a mixture of the dentifrice composition and water, such as a 1:4, 1:3, or 1:2 mixture of the dentifrice composition and water.

[3] = Powder Stain Removal Model (PSRM), tea stain; details: pH 7
Description: A tea solution was prepared using 8 regular teabags (Lipton Black Tea) in 400 mL boiling water and steeping for 5 min. After letting the tea cool to 50° C. it was filtered through a Nalgene sterile filter (Thermo Scientific Nalgene Rapid flow 75 mm Filter Unit, 0.2SCFA). 10 g Hydroxyapatite Powder (HAP, Bio-Gel HTP-Gel Catalog #130-0421, Bio-Rad Laboratories Hercules, Calif.) was added and the mixture was stirred for 5 min, distributed into 12 50-mL centrifuge tubes and centrifuged for 15 min at 14,000 rpm (Lynx 6000, Thermo Fischer with Lynx F14-14X50CY rotor). Supernatant was decanted, the remaining stained HAP-powder was washed twice with water by adding 25 ml of water, vortexing, centrifuging at 14,000 rpm for 15 mins, and decanting liquid. Centrifuge tubes were placed in a convection oven overnight at 60° C. to dry stained HAP. Once dried, stained HAP was pooled and ground to a fine powder with pestle and mortar and stored in a dry dark place at room temperature.
HAP powders were treated with the treatment solutions to investigate their stain removal potential. Treatment (20 mL of a 1:4 dilution of treatment solutions above) was added to stained HAP powder (200 mg) in a 50 mL centrifuge, vortexed for 1 min, then centrifuged at 14,000 rpm for 15 min. Supernatant was decanted and the pellet was washed twice by adding 25 mL of water, vortexing, centrifuging at 14,000 rpm for 15 mins, and decanting. […]

[4] = Powder Stain Removal Model (PSRM), tea stain + FeCl3; details: pH 7
Description: The PSRM is a screening technique where hydroxyapatite powder (HAP) is used as a substrate for stain accumulation (see Baig A A; Kozak K M; Cox E R et al; J Clin Dent 2002, 13:19 24). The purpose of this technique was to illustrate and quantify the stain removal properties of chemical agents used in the oral care compositions disclosed herein with respect to pH. Hydroxyapatite powder provides a large surface area to which tea chromogens adsorbed. In addition to the published PSRM a modification of the model was used where tea stain was used in conjunction with Iron Trichloride (FeCl3) to simulate stains that are more resistant to removal. Stains found in the oral cavity commonly contain Fe(III) (Tantbirojn D, Douglas W H et al Eur J Oral Sci 1998; 106,971-976). […] The magnitude of stain removal was quantified by image analysis. […] VWR BDH9234) was added under stirring. Then HAP-powder was added, powder was centrifuged, washed and dried to yield a deeply colored powder. Treatment solutions were prepared for oxalate and pyrophosphate anions. Oxalate solutions (0.34M, 3%) of different pH (4.5, 5.0, 5.5, 7) were obtained by mixing appropriate ratios of potassium oxalate (62.79 g/L Potassium Oxalate Monohydrate in water, pH-7.0) and oxalic acid solution (30.69 g Oxalic Acid/L in water, pH-1.3). Lower concentrations were obtained by further dilution with water. A pyrophosphate solution, equimolar to a 3% Oxalate solution (75.65 g/L Sodium acid pyrophosphate, pH-adjusted with IN NaOH to pH7) was used as comparison. HAP powders were treated with the treatment solutions to investigate their stain removal potential. […] Supernatant was decanted and the pellet was washed twice by adding 25 mL of water, vortexing, centrifuging at 14,000 rpm for 15 mins, and decanting. The twice washed pellet was resuspended in 30 mL water by vortexing for 1 min, then vacuum-filtered (Millipore MF Membrane Filters 8.0 um, 47 mm) to collect the powder. […] Treatments were done in triplicate. A control disk using tea-stained HAP from the same batch treated with water was prepared as well. The color of the laminated samples was measured using a color-calibrated, white-balanced digital camera and RGB values were acquired. […] The light system was equipped with Dedo lights (model number DLH2) equipped with 150 watt, 24V bulbs model number (Xenophot model number HL X64640), positioned about 30 cm apart (measured from the center of the external circular surface of one of the glass lens through which the light exits to the other) and aimed at a 45 degree angle such that the light paths. […] Stain removal was determined as change in L (brightness) vs. untreated stained HAP, calculated as ΔL=(L for treated HAP-L for the untreated stained HAP). […]

[5] = 0.250 % Active (equimolar to Oxalate Solution)
[6] = 1.250 % Active (equimolar to Oxalate Solution)
[7] = 2.5200 % Active (equimolar to Oxalate Solution)
[8] = 7.56.00 % Active (equimolar to Oxalate Solution)

SMILES: O=C(O)CC(O)(CC(=O)O)C(=O)O [1% Citric Acid, citric acid]
- Δ SMH (change in surface microhardness) [1]: −175.68
- Slurry pH [2]: 2.19

SMILES: O=P([O-])(O)OP(=O)([O-])O.[Na+].[Na+] [Pyrophosphate Solution, Sodium acid pyrophosphate]
- Tea Stain (ΔL) [3, 5]: 5.16
- Tea Stain (ΔL) [3, 6]: 5.97
- Tea Stain (ΔL) [3, 7]: 7.88
- Tea Stain (ΔL) [3, 8]: 9.85
- Tea Stain + FeCl3 (ΔL) [4, 5]: −0.97
- Tea Stain + FeCl3 (ΔL) [4, 6]: 0.02
- Tea Stain + FeCl3 (ΔL) [4, 7]: 0.77
- Tea Stain + FeCl3 (ΔL) [4, 8]: 2.88

Source: patent US20210346259A1, “Oral Care Compositions Comprising Dicarboxylic Acid” (The Procter & Gamble Company, priority 2020, published 2021)
